Source: ChEMBL document CHEMBL1150009, “Quinine analogs as non-peptide calcitonin gene-related peptide (CGRP) receptor antagonists” (Bioorg Med Chem Lett, 1997)

How the values were obtained:
[1] = molecular target: T1, Calcitonin gene-related peptide type 1 receptor (Homo sapiens, UniProt O60894+Q16602); test: Displacement of [125I]hCGRP human Calcitonin gene-related peptide type receptor expressed in SK-N-MC neuroblastoma cell membranes
SK-N-MC = test: In vitro inhibition of CGRP-mediated cAMP production in SK-N-MC cells; assay type: functional, cell-based; settings: Homo sapiens
[2] = molecular target: G-protein coupled receptor 182 (Homo sapiens) (UniProt O15218); test: Compound (up to 30 uM) was tested in vitro for percent effectiveness for ligand binding to Adrenomedullin receptor
[3] = molecular target: T2, Type-1 angiotensin II receptor A (Rattus norvegicus) (UniProt P25095); test: Compound (up to 30 uM) was tested in vitro for percent effectiveness for ligand binding to Angiotensin II receptor
T2 sequence (whole entry): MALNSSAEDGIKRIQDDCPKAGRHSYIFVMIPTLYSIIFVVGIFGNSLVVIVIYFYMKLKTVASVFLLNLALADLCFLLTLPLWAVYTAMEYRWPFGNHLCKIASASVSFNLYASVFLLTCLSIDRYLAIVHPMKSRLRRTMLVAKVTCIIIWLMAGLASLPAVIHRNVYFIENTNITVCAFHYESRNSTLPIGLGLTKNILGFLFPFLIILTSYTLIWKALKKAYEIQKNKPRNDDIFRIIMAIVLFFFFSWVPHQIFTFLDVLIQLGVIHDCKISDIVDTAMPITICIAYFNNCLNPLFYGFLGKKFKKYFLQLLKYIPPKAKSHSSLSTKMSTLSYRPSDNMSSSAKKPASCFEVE

[4] = molecular target: T1, Calcitonin gene-related peptide type 1 receptor; test: Compound was tested in vitro for its binding affinity towards recombinant human Calcitonin gene-related peptide type receptor (membranes of HEK293 cells) using [125I]hCGRP as radioligand; assay type: cell membranes
[5] = Inhibitory concentration in vitro using porcine lung membrane (to identify non-peptide antagonist of the CGRP receptor); assay type: functional, cell membranes, Sus scrofa
[6] = molecular target: T3, Endothelin receptor type B (Homo sapiens) (UniProt P24530); test: Compound (up to 30 uM) was tested in vitro for percent effectiveness for ligand binding to ETB receptors
T3 sequence (whole entry): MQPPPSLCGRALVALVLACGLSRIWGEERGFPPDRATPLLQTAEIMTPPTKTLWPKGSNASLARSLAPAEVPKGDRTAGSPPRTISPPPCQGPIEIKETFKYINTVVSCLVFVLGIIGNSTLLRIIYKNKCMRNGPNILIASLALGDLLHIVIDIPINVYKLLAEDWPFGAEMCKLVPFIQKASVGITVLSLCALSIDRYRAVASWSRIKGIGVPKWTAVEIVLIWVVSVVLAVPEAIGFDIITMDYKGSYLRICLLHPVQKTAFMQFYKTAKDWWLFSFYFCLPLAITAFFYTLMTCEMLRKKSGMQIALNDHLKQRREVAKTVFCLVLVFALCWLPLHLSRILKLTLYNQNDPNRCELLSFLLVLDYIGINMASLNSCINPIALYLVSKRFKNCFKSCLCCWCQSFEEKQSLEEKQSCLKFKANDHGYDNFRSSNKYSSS

[7] = molecular target: T4, Endothelin-1 receptor (Homo sapiens) (UniProt P25101); test: Compound (up to 30 uM) was tested in vitro for percent effectiveness for ligand binding to ETA receptors
T4 sequence (whole entry): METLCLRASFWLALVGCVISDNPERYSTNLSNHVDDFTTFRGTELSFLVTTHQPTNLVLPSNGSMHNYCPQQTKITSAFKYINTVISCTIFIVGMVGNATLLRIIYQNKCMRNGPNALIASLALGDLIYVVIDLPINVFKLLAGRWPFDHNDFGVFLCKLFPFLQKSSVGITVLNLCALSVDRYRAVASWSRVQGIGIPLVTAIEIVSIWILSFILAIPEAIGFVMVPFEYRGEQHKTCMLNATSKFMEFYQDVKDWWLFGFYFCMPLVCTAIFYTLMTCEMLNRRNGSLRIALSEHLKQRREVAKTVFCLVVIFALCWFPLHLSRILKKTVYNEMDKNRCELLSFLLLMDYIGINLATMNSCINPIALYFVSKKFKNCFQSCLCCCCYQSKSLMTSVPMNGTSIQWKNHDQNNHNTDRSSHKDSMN

[8] = molecular target: T5, Vasoactive intestinal peptide receptor (Gallus gallus) (UniProt A5A0U0); test: Compound (up to 30 uM) was tested in vitro for percent effectiveness for ligand binding to Vasoactive intestinal peptide receptor
T5 sequence (whole entry): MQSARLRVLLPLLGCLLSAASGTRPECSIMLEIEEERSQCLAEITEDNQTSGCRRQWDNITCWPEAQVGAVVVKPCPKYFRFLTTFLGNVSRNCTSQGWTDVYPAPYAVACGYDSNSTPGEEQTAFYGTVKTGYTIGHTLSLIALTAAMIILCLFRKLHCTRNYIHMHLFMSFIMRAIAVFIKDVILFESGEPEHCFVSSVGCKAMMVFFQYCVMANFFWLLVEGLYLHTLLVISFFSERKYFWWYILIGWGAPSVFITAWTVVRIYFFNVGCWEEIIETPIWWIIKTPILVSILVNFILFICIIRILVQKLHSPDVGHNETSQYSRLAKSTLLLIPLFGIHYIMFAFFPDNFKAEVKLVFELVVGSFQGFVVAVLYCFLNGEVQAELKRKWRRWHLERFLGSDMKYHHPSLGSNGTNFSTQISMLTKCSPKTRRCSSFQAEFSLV

[9] = Compound (up to 30 uM) was tested in vitro for percent effectiveness for ligand binding to GLP-1 receptors

T1 sequence (Q16602 whole entry, one chain of several): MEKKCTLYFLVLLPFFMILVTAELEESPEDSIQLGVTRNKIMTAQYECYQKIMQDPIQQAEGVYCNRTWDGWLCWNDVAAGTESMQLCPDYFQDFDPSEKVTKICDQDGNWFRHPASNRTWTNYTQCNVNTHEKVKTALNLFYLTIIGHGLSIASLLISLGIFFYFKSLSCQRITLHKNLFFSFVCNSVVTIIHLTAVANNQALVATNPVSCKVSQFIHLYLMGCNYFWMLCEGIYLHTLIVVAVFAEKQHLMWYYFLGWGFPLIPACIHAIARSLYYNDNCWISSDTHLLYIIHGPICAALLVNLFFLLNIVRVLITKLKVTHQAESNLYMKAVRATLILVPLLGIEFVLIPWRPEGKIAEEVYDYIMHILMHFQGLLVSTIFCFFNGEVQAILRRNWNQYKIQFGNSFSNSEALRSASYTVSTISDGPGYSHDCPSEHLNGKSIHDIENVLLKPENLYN
Sequence of G-protein coupled receptor 182 (Homo sapiens) (O15218 whole entry): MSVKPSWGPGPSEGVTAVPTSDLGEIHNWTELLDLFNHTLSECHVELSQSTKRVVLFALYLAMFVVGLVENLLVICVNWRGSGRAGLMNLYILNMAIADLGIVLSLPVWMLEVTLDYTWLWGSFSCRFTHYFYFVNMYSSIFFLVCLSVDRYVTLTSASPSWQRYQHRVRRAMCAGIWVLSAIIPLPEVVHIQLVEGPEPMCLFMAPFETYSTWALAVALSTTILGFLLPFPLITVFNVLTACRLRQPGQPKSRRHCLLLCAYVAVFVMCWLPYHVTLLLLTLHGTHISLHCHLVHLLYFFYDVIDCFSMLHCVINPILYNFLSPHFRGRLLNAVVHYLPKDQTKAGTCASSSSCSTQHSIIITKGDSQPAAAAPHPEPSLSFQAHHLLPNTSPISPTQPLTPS

Compound: CCC1CN2CCC1CC2[C@H](O)c1cc(-c2cccc(N)c2)nc2ccc(OC)cc12 (stereo partly specified)
- IC50 [1]: > 100 µM
- IC50 (SK-N-MC): > 100 µM

Compound: CCC1CN2CCC1CC2[C@H](O)c1cc(-c2cccc([N+](=O)[O-])c2)nc2ccc(OC)cc12 (stereo partly specified)
- IC50 [1]: 41 µM

Compound: CCC1CN2CCC1CC2[C@H](O)c1cc(-c2ccc(F)c(Cl)c2)nc2ccc(OC)cc12 (stereo partly specified)
- IC50 [1]: 17 µM
- IC50 (SK-N-MC): 14 µM

Compound: CCC1CN2CCC1CC2[C@H](O)c1cc(-c2ccccc2)nc2ccc(OC)cc12 (stereo partly specified)
- IC50 [1]: 96 µM
- IC50 (SK-N-MC): 65 µM

Compound: CCC1CN2CCC1CC2[C@H](O)c1cc(-c2ccc(Oc3ccccc3)cc2)nc2ccc(OC)cc12 (stereo partly specified)
- IC50 [1]: 12 µM
- IC50 (SK-N-MC): 22 µM

Compound: CCC1CN2CCC1CC2[C@H](O)c1cc(-c2ccc(C(F)(F)F)cc2)nc2ccc(OC)cc12 (stereo partly specified)
- IC50 [1]: 5.2 µM
- IC50 (SK-N-MC): 24 µM

Compound: CCC1CN2CCC1CC2[C@H](O)c1cc(-c2ccc(Cl)cc2Cl)nc2ccc(OC)cc12 (stereo partly specified)
- IC50 [1]: 37 µM
- IC50 (SK-N-MC): 28 µM

Compound: CCC1CN2CCC1CC2[C@H](O)c1cc(-c2ccc(Cl)cc2)nc2ccc(OC)cc12 (stereo partly specified)
- inhibition [2]: < 20%
- inhibition [3]: < 20%
- IC50 [4]: 5.5 µM
- IC50 [1]: 5.9 µM
- IC50 [5]: 6 µM
- inhibition [6]: < 20%
- inhibition [7]: < 20%
- IC50 (SK-N-MC): 26 µM
- inhibition [8]: < 20%
- inhibition [9]: < 20%

Compound: CCC1CN2CCC1CC2[C@H](O)c1cc(-c2ccsc2)nc2ccc(OC)cc12 (stereo partly specified)
- IC50 [1]: > 100 µM

Compound: CCC1CN2CCC1CC2[C@H](O)c1cc(-c2cccc3ccccc23)nc2ccc(OC)cc12 (stereo partly specified)
- IC50 [1]: 33 µM
- IC50 (SK-N-MC): 23 µM

Compound: CCC1CN2CCC1CC2[C@H](O)c1cc(-c2ccc3c(c2)OCO3)nc2ccc(OC)cc12 (stereo partly specified)
- IC50 [1]: 74 µM
- IC50 (SK-N-MC): 60 µM

Compound: CCC1CN2CCC1CC2[C@H](O)c1cc(-c2cccc(C(F)(F)F)c2)nc2ccc(OC)cc12 (stereo partly specified)
- IC50 [1]: 9.9 µM
- IC50 (SK-N-MC): 20 µM

Compound: CCC1CN2CCC1CC2[C@H](O)c1cc(-c2ccc(OC)cc2)nc2ccc(OC)cc12 (stereo partly specified)
- IC50 [1]: > 100 µM
